Entries after “also recorded” stand apart in the source; their conditions may differ. Each block holds one compound with its values, some of them ahead of it.
Key:
[1] = in vivo circulation; cited from earlier work
heparin-plasma = conditions: human, RT (25 ± 1°C)
EDTA plasma = conditions: human, RT (25 ± 1°C), up to 96 hours
citrate-plasma = conditions: human, RT (25 ± 1°C)
P800 plasma = conditions: human, RT (25 ± 1°C), up to 96 hours
[2] = conventional serum sample; conditions: human, RT (25 ± 1°C), up to 96 hours
purified DPP-IV enzyme = test: 50 mM HEPES buffer (pH7.5); conditions: 37°C, up to 48 hours

Compound: CC[C@H](C)[C@H](NC(=O)[C@H](CO)NC(=O)[C@H](Cc1ccc(O)cc1)NC(=O)[C@H](CC(=O)O)NC(=O)[C@H](CO)NC(=O)[C@@H](NC(=O)[C@H](Cc1ccccc1)NC(=O)[C@@H](NC(=O)CNC(=O)[C@H](CCC(=O)O)NC(=O)[C@H](C)NC(=O)[C@@H](N)Cc1ccc(O)cc1)[C@@H](C)O)[C@@H](C)CC)C(=O)N[C@@H](C)C(=O)N[C@@H](CCSC)C(=O)N[C@@H](CC(=O)O)C(=O)N[C@@H](CCCCN)C(=O)N[C@H](C(=O)N[C@@H](Cc1c[nH]cn1)C(=O)N[C@@H](CCC(N)=O)C(=O)N[C@@H](CCC(N)=O)C(=O)N[C@@H](CC(=O)O)C(=O)N[C@@H](Cc1ccccc1)C(=O)N[C@H](C(=O)N[C@@H](CC(N)=O)C(=O)N[C@@H](Cc1c[nH]c2ccccc12)C(=O)N[C@@H](CC(C)C)C(=O)N[C@@H](CC(C)C)C(=O)N[C@@H](C)C(=O)N[C@@H](CCC(N)=O)C(=O)N[C@@H](CCCCN)C(=O)NCC(=O)N[C@@H](CCCCN)C(=O)N[C@@H](CCCCN)C(=O)N[C@@H](CC(N)=O)C(=O)N[C@@H](CC(=O)O)C(=O)N[C@@H](Cc1c[nH]c2ccccc12)C(=O)N[C@@H](CCCCN)C(=O)N[C@@H](Cc1c[nH]cn1)C(=O)N[C@@H](CC(N)=O)C(=O)N[C@H](C(=O)N[C@H](C(=O)N[C@@H](CCC(N)=O)C(=O)O)[C@@H](C)O)[C@@H](C)CC)C(C)C)[C@@H](C)CC [GIP(1–42), glucose-dependent insulinotropic polypeptide]
- half-life in circulation [1]: ~5 min

- cleaved bond (heparin-plasma): A8-E9, major
- cleaved bond (EDTA plasma): A8-E9, major, 30 minutes
- cleaved bond (citrate-plasma): A8-E9, major, 30 minutes
- cleaved bond (P800 plasma): A8-E9, minor, after 3-day incubation
- cleaved bond [2]: A8-E9, major, 30 minutes
- not cleaved [2]: no G36A-1C
Compound: HA/EGTFTSDVSSYLEGQAAKEFIAWLVKGR-NH2

- cleaved bond (EDTA plasma): A8-E9, 30 minutes
Compound: HA/EGTFTSDVSSYLEGQAAKEFIAWLVKGR-OH
- cleaved bond [2]: A8-E9, 30 minutes; also recorded: G35-R36, 30 minutes

- cleaved bond (heparin-plasma): A8-E9, major
- cleaved bond (EDTA plasma): A8-E9, major, 1h
- cleaved bond (citrate-plasma): A8-E9, major
- cleaved bond (P800 plasma): A8-E9, minor, after 3-day incubation
Compound: HA/EGTFTSDVSSYLEGQAAKEFIAWLVKGRG

Compound: HS/QGTFTSDYSKYLDSRRAQDFVQWLMNTKRNRNNIA
- cleaved bond (purified DPP-IV enzyme): S2-Q3, first_seen, 24 hours; also recorded: G4-T5, 48 h

Compound: HSQGTFTSDYSKYLDSRRAQDFVQWLMNTKRNKNNIA
- not cleaved (P800 plasma): fragments not detectable during 3-day incubation; full-length OXM stabilized for more than three days

- cleaved bond (EDTA plasma): A2-E3, major, two hours
- cleaved bond [2]: A2-E3, major
Compound: YA/EGTFISDYSIAMDKIHQQDFVNWLLAQKGKKNDWKHNITQ
- not cleaved (P800 plasma): without any GIP degradation fragments detectable during 4-day incubation at RT; t½ > 96 hours

Compound: glucagon-like peptide 1 [GLP-1]
- half-life in circulation [1]: approximately 2 minutes

From publication PMC4519045 (PLoS ONE, 2015)
